Measurements as given in US5877320A, “Process for the preparation of organotin compounds useful as cytotoxic agents” (priority 1995, dated 1999).

Key:
[1] = tested on: A498; assay: In-vitro cytotoxicity [ID50] against A498 (renal cancer); type: cell-based, human; settings: NCI-USA protocol
Text: (§1) The in-vitro cytotoxicity determined in terms of inhibition dose [ID50 ] of compounds having the formulae 8-11 prepared by the process of the present invention against […] different human cancer cell lines namely MCF7, EVSAT (Breast Cancer), WIDR (Colon Cancer), IGROV (Ovarian Cancer), M19MEL (Melanoma), A498 (Renal Cancer) and H226 (Nonsmall cell lung Cancer) have been measured following NCI-USA protocol [M. R. Boyd, "Status of the NCI preclinical antitumour drug discovery screen. Principles & practice of oncology 3, pp. 1-12 (1989)] alongwith the latest ID50 values of inorganic cancer drugs are presented in Table 1.

[2] = tested on: IGROV; assay: In-vitro cytotoxicity [ID50] against IGROV (ovarian cancer); type: cell-based, human; settings: NCI-USA protocol
Text: as §1

[3] = tested on: H226; assay: In-vitro cytotoxicity [ID50] against H226 (nonsmall cell lung cancer); type: cell-based, human; settings: NCI-USA protocol
Text: as §1

[4] = tested on: EVSAT; assay: In-vitro cytotoxicity [ID50] against EVSAT (breast cancer); type: cell-based, human; settings: NCI-USA protocol
Text: as §1

[5] = tested on: MCF7; assay: In-vitro cytotoxicity [ID50] against MCF7 (breast cancer); type: cell-based, human; settings: NCI-USA protocol
Text: as §1

[6] = tested on: M19MEL; assay: In-vitro cytotoxicity [ID50] against M19MEL (melanoma); type: cell-based, human; settings: NCI-USA protocol
Text: as §1

[7] = tested on: WIDR; assay: In-vitro cytotoxicity [ID50] against WIDR (colon cancer); type: cell-based, human; settings: NCI-USA protocol
Text: as §1

[8] = tested on: P388 lymphocytic leukemia; settings: in words; literature; cited from earlier work

| Molecule | Anti-tumour activity [ID50] [1] [µg/mL] | Anti-tumour activity [ID50] [2] [µg/mL] | Anti-tumour activity [ID50] [3] [µg/mL] | Anti-tumour activity [ID50] [4] [µg/mL] | Anti-tumour activity [ID50] [5] [µg/mL] | Anti-tumour activity [ID50] [6] [µg/mL] | Anti-tumour activity [ID50] [7] [µg/mL] | activity against P388 in mice [8] |
| --- | --- | --- | --- | --- | --- | --- | --- | --- |
| N.N.O=C([O-])C1(C(=O)[O-])CCC1.[Pt+2] [Carboplatin, reference compound] | 18 | 2.4 | 25 | 4.5 | 10.5 | 5.5 | 3.5 |  |
| N.N.[Cl][Pt][Cl] [cis-platin, reference compound] | 1.2 | 0.227 | 3.158 | 0.92 | 1.4 | 0.78 | 1.55 |  |
| [Cl][Sn]([Cl])([c]1ccccc1)[CH]1CCCCC1 [cyclohexyl-(phenyl)tindichloride] |  |  |  |  |  |  |  | inhibition of P-388 in mice |
| bipyridine complex of dibenzyltindichloride [compound 11] | 0.16 | 0.08 | 0.35 | 0.15 | 0.12 | 0.32 | 0.8 |  |
| bis(imidazole) complex of dibenzyltindichloride [compound 10] | 1 | 3.2 | 1.3 | 0.4 | 0.7 | 1.5 | 3.2 |  |
| bis(indole) complex of dibenzyltindichloride [compound 8] | 0.2 | 0.11 | 0.2 | 0.15 | 0.15 | 0.4 | 0.85 |  |
| bis(thiophene) complex of dibenzyltindichloride [compound 9] | 0.11 | 0.05 | 0.4 | 0.13 | 0.068 | 0.25 | 0.55 |  |
| dibenzyl(phenanthroline)-tindichloride |  |  |  |  |  |  |  | inactive |
